The text below walks through data of patent US20260245700A1, “METHOD FOR GIVING A RECOMMENDATION ON THE DIETARY ENERGY OF A POULTRY DIET” (Evonik Operations GmbH, priority 2023, published 2026).

Like-named read-outs stand apart in the source and are kept apart here. A value given as a limit tells only on which side of the number the result lay.

Series [1] concerns broilers. Nature of the series: Trials in which GAA compensates dietary energy reduction (energy-sparing value). Format: in vivo. The text has this: Reduction of dietary energy content and adding GAA to the feed restored broiler performance, which supports this conclusion (Malins et al., 2017; Mousavi S. N., Afsar A., Lotfollahian H. (2013) Effects of guanidinoacetic acid supplementation to broiler diets with varying energy contents, Journal of Applied Poultry Research, Volume 22, Issue 1, 2013, Pages 47-54, ISSN 1056-6171, https://doi.org/10.3382/japr.2012-00575; Heger, J., J. Zelenka, V. Machander, C. Cruz, M. Lestak, and D. Hampel. (2014) “Effects of Guanidinoacetic Acid Supplementation to Broiler Diets with Varying Energy Content.” Acta Universitatis Agriculturae Silviculturae Mendelianae Brunensis 62: 477-485. doi:10.11118/actaun201462030477; Abudabos, A. M., F. Saleh, A. Lemme, and H. A. H. Zakaria (2014) “The Relationship between Guanidino Acetic Acid and Metabolisable Energy Level of Diets on Performance of Broiler Chickens.” Italian Journal of Animal Science 13: 548-556. doi:10.4081/ijas.2014.3269).
The energy reduction level as well as the GAA supplementation rate was not always the same in trails in which GAA was used to compensate for energy reduction. In most trials dietary energy level of a standard diet was reduced by 50 kcal/kg feed and 0.06% GAA was supplemented to maintain bird performance. This would be equivalent to an energy-sparing value of 83.333 kcal/kg of GAA. However, considering all 20 identified independent trials in which GAA was used to compensate for dietary energy reduction, a wide range of energy-sparing values from 41.667 to 568.333 kcal/kg was tested. […] It can be predicted that an energy-sparing value of 163.889 kcal/kg GAA maintains BWG of the birds, whereas there is still a small improvement for FCR. For FCR, it was found out that even an energy-sparing value of 197.222 kcal/kg GAA maintains performance.

The test system of series [2] is broilers. The settings on record: EFSA 2009; Tossenberger et al. 2016; cited from earlier work.
Series [3] relates to broilers. The note with it: reduced dietary energy content plus GAA added to the feed; cited from earlier work.
Series [4] deals with broilers. The settings on record: linear regression, relative scale, control = 100%, cited from earlier work.
A further series concerns broiler chickens. The settings on record: cited from earlier work.
For series [5], the system named is broilers. The settings on record: GAA supplemented in broiler diets, compared to non-supplemented diets, asymptotic; cited from earlier work.
The conditions of series [6]: Vranes et al. 2017; relatively stable during pelleting or extruding; cited from earlier work.

For `N=C(N)NCC(=O)O` [GAA, Guanidinoacetic acid], the “energy-sparing value that maintains performance for FCR” value in the series on broilers [1] (from 20 independent trials) is given as 197.222 kcal/kg GAA. The “energy GAA can compensate (energy-sparing value)” value with broilers [1] (overall, 20 independent trials) is on record as “more than 83.333 kcal/kg”. In the series on broilers [1] (predicted from 20 independent trials, still a small improvement for FCR), the “energy-sparing value that maintains BWG” value is listed as 163.889 kcal/kg GAA. Further, the bioavailability entry in the series on broilers [2] is “high”. Also, in the series on broilers [3], the broiler performance result is “restored”. For the same compound, the FCR improvement in the series with broilers [4] (GAA dose 0.6 g/kg) was 4.5 points; in the series on broilers [4] (GAA dose 1.2 g/kg), 8.8 points. In addition, the replacement efficiency with broiler chickens (1.7 g/kg L-ARG compensated by 1.2 g/kg GAA (Dilger et al. 2013)) was 142%. Besides, the “circulatory ARG levels” value in the series with broiler chickens (birds fed ARG-deficient diets (DeGroot et al. 2018)) is given as “increased”. For the same compound, in the series on broiler chickens (by 1.2 g/kg GAA (Dilger et al. 2013)), the L-ARG compensated was 1.7 g/kg. Also, in the series on broiler chickens (very ARG-deficient diet, at 1.2 g/kg supplemental GAA (Dilger et al. 2013)), the “supplemental L-ARG needed to reach a given feed conversion ratio” value was 2.1 g/kg. For the same compound, the ARG-sparing effect with broiler chickens (very deficient ARG diets (Dilger et al. 2013)) was 143%. The “increase of muscle CREA, maximum” value with broilers [5] was no more than 29%. Besides, the thermal stability result in series [6] is recorded as “high”.
